We go through one molecule from patent US6420557B1, “Crystalline therapeutic agent” (Pfizer Inc., priority 2000, dated 2002).

Data set [1] can be described thus: early investigations of the crystals (hygroscopicity, stability, formulation properties). Format: physicochemical. To be noted: crystals having the XRD pattern of Table 1.
The target of data set [2] is cGMP PDE5 (Homo sapiens, UniProt O76074). To be noted: statement in words, as detailed in WO 01/27113; cited from earlier work.

For the molecule `CCOc1ncc(S(=O)(=O)N2CCN(CC)CC2)cc1-c1nc2c(CC)n(CCOC)nc2c(=O)[nH]1` [Example 1, 1-{6-ethoxy-5-[3-ethyl-6,7-dihydro-2-(2-methoxyethyl)-7-oxo-2H-pyrazolo[4,3-d]pyrimidin-5-yl]-3-pyridylsulfonyl}-4-ethylpiperazine], in data set [1], the formulation properties result is “good formulation properties”, the hygroscopicity result is “non-hygroscopic” and the stability result was “stable”. Moreover, the “cGMP PDE5 inhibitor potency and selectivity” value in data set [2] was “potent and selective”.
